Source: paper PMC9767416, “Discovery of small molecule mechanistic target of rapamycin inhibitors as anti-aging and anti-cancer therapeutics” (Frontiers in Aging Neuroscience, 2022)
Like-named read-outs stand apart in the source and are kept apart here.

Assays:
[1] = Shake-flask partition coefficient logP and distribution coefficient logD (pH 7.4); format: physicochemical; conditions: for logD: n-octanol/sodium phosphate buffer pH 7.4; for logP: n-octanol/water
Description: Before the initiation of the intended experiments, all solvents were mutually saturated at 21°C. […] For saturation, large stock bottles containing n-octanol and 12% of water/buffer or water/buffer and 12% of n-octanol were shaken for 30 mins on a mechanical shaker and subsequently left to stand on the bench overnight until the phases separated. Approximately 0.50 mg of tested substance was added to the test vessels alongside with 1:1 volume ratio of saturated solvents (250 μL). The test vessels were shaken on the mechanical shaker (Multi Reax, Heidolph Instruments, Schwabach, Germany) for 30 min at the highest speed and then centrifuged for phase separation (16.873 × g for 5 min; Eppendorf 5418 Microcentrifuge, Prague, Czech Republic). Both organic and aqueous phases were sampled for LC-MS analysis. UHPLC-DAD-MS (UHPLC Infinity II 1290, detection by DAD and QqQ 6470; Agilent Technologies, CA, USA; separation on Arion C18 polar column 100 × 2.1 mm, 2.1 μm; Chromservis, Czech Republic) was used for determination of the exact concentration of tested substances. The total quantity of substance (in both phases) was used for logP/logD values calculation.

[2] = Solubility by nephelometry (water, buffer pH 7.4); format: physicochemical; conditions: for logSpH 7.4: buffer pH 7.4; for logSH2O: water
Description: Compounds’ solubility was measured by the NEPHELOstar microplate instrument (BMG Labtech, Offenburg, Germany). Stock solutions were prepared by dissolving the tested compounds in ultrapure water or sodium phosphate buffer (pH 7.4) to obtain a concentration of 160 and 1,000 μg/mL. Each stock solution was sonicated at full power by Hielscher UP100H needle ultrasonic processor (Teltow, Germany) before loading into NEPHELOstar instrument injector A. Ultrapure water or sodium phosphate buffer was loaded into injector B. Compound was diluted in 48 wells in 0–160 or 0–1,000 μg/mL range and subsequently shook for 30 s. Each well was scanned with 80% laser power in matrix 3 × 3, beam width 2 mm, and obtained data were evaluated in GraphPad Prism 7.03 (GraphPad Software, San Diego, CA, USA) using segmental linear regression.

C57BL/6 (B6) male mice [3] = assay: In vivo tolerability study (behaviour, signs of toxicity, body weight)
Description: C57BL/6 (B6) male mice, 8–12 weeks old, were obtained from the Institute of Molecular Genetics, Prague, Czech Republic. Experimental protocols were approved by the Institutional Animal Care Committee of the Institute of Molecular Genetics, Prague.
Compounds were dissolved in 20 μL DMSO and completed into 200 μL with corn oil.
(§1) During the experiments, mice behavior and possible apparent signs of toxicity were monitored daily. The body weights were determined on days 0, 4, and 8. On day 8, blood (25 μL) was withdrawn using a capillary pipette containing anticoagulant (heparin) from the retroorbital sinus into EDTA-containing tubes. Basic hematological parameters were measured using the Mindray BC-5300 Vet. Mice were then killed, autopsied, and abdominal organs (spleen, liver, and kidney) were removed for visual examination and imaging by a digital camera. Single-cell suspensions from the spleens were prepared by homogenization through a cell strainer (70 μm; BD Biosciences, San Jose, CA, USA). Erythrocytes were osmotically lysed using ammonium chloride-potassium lysis buffer, and the cell suspensions were washed three times in the RPMI-1640 medium and used for further analysis by flow cytometry for selected cell populations.

C57BL/6 (B6) male mice [4] = assay: Spleen cell populations by flow cytometry in the tolerability study; format: in vivo; conditions: for CD4+ spleen cells / CD8+ spleen cells / Cd11b+/Gr-1+ spleen cells: percentage from the CD45+ cells
Description: as §1
The cellularity of selected spleen cell populations was analyzed by flow cytometry. Cell suspensions were washed and preincubated with anti-CD16/CD32 (2.4G2) antibody to minimize non-specific binding at 4°C for 15 min following the washing step and incubation with labeled primary antibody at 4°C for 30 min. Relevant isotype controls of irrelevant specificity were used. FACS buffer (PBS, 1% FBS, 0.1% NaN3) was used for all washing steps and analysis. The following antibodies were used for FACS analyses: BV421 anti-mouse CD45 (30-F11), PE anti-mouse CD8α (53-6.7), BV711 anti-mouse CD4 (RM4-5), APC anti-mouse Ly-6g/Ly-6C (Gr-1) (RB6-8C5), BV711 anti-mouse CD11b (M1/70). FACS analysis was performed using a flow cytometer Symphony (BD Biosciences) and analyzed using FlowJo 10 software (FlowJo LLC, Ashland, OR, USA).

[5] = sodium phosphate buffer pH 7.4, nephelometry
[6] = p.o. 5, 25 and 50 mg/kg body weight, days 0, 3, 5
[7] = 5 mg/kg p.o. days 0, 3, 5, spleen day 8
[8] = 25 mg/kg p.o. days 0, 3, 5, spleen day 8
[9] = 50 mg/kg p.o. days 0, 3, 5, spleen day 8

Row | Compound | logSpH 7.4 [2] | Sol. (buffer 7.4) [2, 5] | Sol. (H2O) ([2]; ultrapure water, nephelometry) | logSH2O [2] | signs of whole body or organ toxicities (C57BL/6 (B6) male mice [3]; [6]) | CD45+ spleen cells (C57BL/6 (B6) male mice [4]; [7]) [%] | CD4+ spleen cells (C57BL/6 (B6) male mice [4]; 5 mg/kg p.o.) [%] | CD8+ spleen cells (C57BL/6 (B6) male mice [4]; 5 mg/kg p.o.) [%] | Cd11b+/Gr-1+ spleen cells (C57BL/6 (B6) male mice [4]; 5 mg/kg p.o.) [%] | CD45+ spleen cells (C57BL/6 (B6) male mice [4]; [8]) [%] | CD4+ spleen cells (C57BL/6 (B6) male mice [4]; 25 mg/kg p.o.) [%] | CD8+ spleen cells (C57BL/6 (B6) male mice [4]; 25 mg/kg p.o.) [%] | Cd11b+/Gr-1+ spleen cells (C57BL/6 (B6) male mice [4]; 25 mg/kg p.o.) [%] | CD45+ spleen cells (C57BL/6 (B6) male mice [4]; [9]) [%] | CD4+ spleen cells (C57BL/6 (B6) male mice [4]; 50 mg/kg p.o.) [%] | CD8+ spleen cells (C57BL/6 (B6) male mice [4]; 50 mg/kg p.o.) [%] | Cd11b+/Gr-1+ spleen cells (C57BL/6 (B6) male mice [4]; 50 mg/kg p.o.) [%] | other results
1 | Nc1ccc(C(=O)Nc2cccc(-c3c[nH]c4ncccc34)c2)cc1O [Compound 3, N-(3-(1H-pyrrolo[2,3-b]pyridin-3-yl)phenyl)-4-amino-3-hydroxybenzamide] | <−4.76 | lower than 6 μg/mL | lower than 6 μg/mL | <−4.76 | no apparent signs | 94.3 | 19.0 | 11.4 | 0.7 | 95.9 | 15.9 | 9.6 | 1.0 | 97.2 | 16.0 | 9.8 | 0.8 | logD ([1]; n-octanol/sodium phosphate buffer, pH 7.4, shake-flask, read-out: logD): 2.15 ± 0.02; logP ([1]; shake-flask, read-out: logP): 2.08 ± 0.07; solubility kinetic at 30 s ([2]; aqueous buffer, sodium phosphate buffer pH 7.4, nephelometry, read-out: Sol. (buffer 7.4)): < 6 µg/mL; solubility kinetic at 30 s ([2]; ultrapure water, nephelometry, read-out: Sol. (H2O)): < 6 µg/mL; symptoms of intoxication (C57BL/6 (B6) male mice [3]; 50 mg/kg body weight, perorally): did not exert any symptoms of intoxication; changes in mice behavior and body weights (C57BL/6 (B6) male mice [3]; [6]): no changes
2 | CC(C)n1nc(-c2cc3cc(O)ccc3[nH]2)c2c(N)ncnc21 [Torkinib, torkinib] | <−4.71 | <6 µg/mL | <6 µg/mL | <−4.71 | no apparent signs | 92.0 | 15.5 | 10.4 | 0.9 | 96.7 | 15.4 | 9.8 | 0.6 | 84.0 | 16.6 | 10.2 | 1.3 | logD ([1]; shake-flask): 2.75 ± 0.06; logP ([1]; shake-flask): 2.65 ± 0.02; logSpH 7.4 ([2]; listed as torkinib): < −4.60; Sol. (buffer 7.4) ([2]; sodium phosphate buffer pH 7.4, nephelometry, listed as torkinib): lower than 6 μg/mL; Sol. (H2O) ([2]; ultrapure water, nephelometry, listed as torkinib): lower than 6 μg/mL; logSH2O ([2]; listed as torkinib): < −4.60
